Experimental data from patent US20240368147A1, “CYCLIN K DEGRADER” (ADLAI NORTYE BIOPHARMA CO., LTD., priority 2021, published 2024).
Read-outs that look alike come from different tables or passages of the source.

Tested on: HGC27 (Human Gastric Cancer Cell)
Test: HGC27 cell growth inhibition (CellTiter-Glo)
Type: cell-based
Details: read-out: HGC27 CTG IC50
Description: Biological Activity Detection of HGC27 (Human Gastric Cancer Cell) Cell Growth Inhibition
This detection method is used to evaluate the cellular level biological activity of the compounds of the present disclosure.
Harvest HGC27 cells (purchased from Chinese Academy of Sciences), resuspend in complete culture medium and adjust the cell density to 0.2×10^6 cells per ml. Add 100 μL of cell suspension to each well into a 96-well plate and incubate overnight in a 37° C., 5% CO2 incubator. Prepare the compound to be tested and add it to the cell plate so that the maximum concentration of the compound is 10 μM. Set 8 concentration points according to 3-fold dilution. At the same time, set up a 100% inhibition control well, that is, a well with no cells added and only an equal volume of complete culture medium; and a 0% inhibition control well, that is, a cell well with 0.1% DMSO added. The above cell plate was cultured at 37° C. and 5% CO2 for 24 hours. Take out the cell culture plate, add 25 μl CellTiter-Glo® Luminescent Cell Viability reagent (promega cat #G7573) to each well, incubate in the dark for 10 minutes, transfer 100 μL to a white plate, and use Molecular Devices SpectraMax i3 to detect chemiluminescence. Data processing uses the following formula to calculate the inhibition rate: compound inhibition rate=(0% inhibition of control well signal−compound treatment well signal)/(0% inhibition of control well signal−100% inhibition of control well signal)*100%. The calculated data were fitted using graphpad prism software with four parameters and the corresponding IC50 was calculated.
According to the above detection method, the biological activity of the compound of the present disclosure was evaluated at the cellular level. Wherein, CR8 is a literature compound, which was purchased from Shanghai Bide Pharmaceutical.

[1] = Homo sapiens, HGC-27, 24 h, HGC27 cells, 24 hours, CellTiter-Glo

SMILES	IC50 [1]	further results
CC[C@@H](Nc1nc(NCc2ccc(-c3cc(CO)cc(CO)n3)cc2)ncc1C(F)(F)F)C(N)=O [Compound 169]	53 nM	
O[C@@H]1CCC[C@H]1Nc1nc(NCc2ccc(-c3ccccn3)cc2)ncc1C(F)(F)F [Compound 152]		IC50 (HGC27 cells, 24 hours, CellTiter-Glo): 202 nM
CC[C@@H](Nc1nc(NCc2ccc(-c3cc(C)cc(CO)n3)cc2)ncc1C(F)(F)F)C(N)=O [Compound 163]	393 nM	
CC[C@@H](Nc1nc(NCc2ccc(-c3cc(CO)cc(CO)n3)cc2)ncc1C(F)(F)F)[C@@H](C)O [Compound 198]	439 nM	
C[C@@H](O)[C@@H](CO)Nc1nc(NCc2ccc(-c3ccccn3)cc2)ncc1C(F)(F)F [Compound 126]	170 nM	
CC(C)(C)[C@H](CO)Nc1nc(NCc2ccc(-c3ccccn3)cc2)ncc1C(F)(F)F [Compound 85]	405 nM	
CC[C@H](CO)Nc1nc(NCc2ccc(-c3ccccn3)cc2)c2ncn(C(C)C)c2n1 [CR8, reference compound]	429 nM	
Cc1cc(CO)nc(-c2ccc(CNc3ncc(C(F)(F)F)c(OC4COC4)n3)cc2)c1 [Compound 69]	185 nM	
N#Cc1ccnc(-c2ccc(CNc3ncc(C(F)(F)F)c(OC4COC4)n3)cc2)c1 [Compound 138]	254 nM	
CC[C@H](CO)Nc1nc(NCc2ccc(-c3ccccn3)cc2)ncc1C(F)(F)F [Compound 25]	158 nM	
C[C@@H](Oc1nc(NCc2ccc(-c3ccccn3)cc2)ncc1C(F)(F)F)C(N)=O [Compound 166]	24 nM	
C[C@H](CO)Oc1nc(NCc2ccc(-c3ccccn3)cc2)ncc1C(F)(F)F [Compound 165]	89 nM	
C[C@H](O)[C@@H](Nc1nc(NCc2ccc(-c3ccccn3)cc2)ncc1C(F)(F)F)C(N)=O [Compound 212]		IC50 (Homo sapiens, HGC-27, 24 h): 187 nM
NS(=O)(=O)c1cncc(-c2nc(NCc3ccc(-c4ccccn4)cc3)ncc2C(F)(F)F)c1 [Compound 147]	410 nM	
CS(=O)(=O)c1cccc(-c2nc(NCc3ccc(-c4ccccn4)cc3)ncc2C(F)(F)F)c1 [Compound 146]	281 nM	
CNC(=O)[C@@H](C)Nc1nc(NCc2ccc(-c3ccccn3)cc2)ncc1C(F)(F)F [Compound 193]	39 nM	
C=Cc1ccnc(-c2ccc(CNc3ncc(C(F)(F)F)c(OC4COC4)n3)cc2)c1 [Compound 129]	77 nM	
C[C@@H](O)[C@@H](CO)Nc1nc(NCc2ccc(-c3cc(CO)cc(CO)n3)cn2)ncc1C(F)(F)F [Compound 177]	193 nM	
CC[C@H](CO)Oc1nc(NCc2ccc(-c3ccccn3)cc2)ncc1C(F)(F)F [Compound 149]	238 nM	
OCC(CO)Nc1nc(NCc2ccc(-c3ccccn3)cc2)ncc1C(F)(F)F [Compound 104]	275 nM	
C[C@@H](O)[C@@H](C)Nc1nc(NCc2ccc(-c3cc(CO)cc(CO)n3)cc2)ncc1C(F)(F)F [Compound 194]	278 nM	

SMILES	IC50 [1]	further results
C[C@@H](O)[C@@H](CO)Nc1nc(NCc2ccc(-c3cc(CO)cc(CO)n3)cc2)ncc1C#N [Compound 175]	406 nM	
COC[C@H](CO)Nc1nc(NCc2ccc(-c3ccccn3)cc2)ncc1C(F)(F)F [Compound 158]	49 nM	
C[C@@H](Nc1ncc(C(F)(F)F)c(OC2COC2)n1)c1ccc(-c2ccccn2)cc1 [Compound 119]	479 nM	
CC[C@@H](Nc1nc(NCc2ccc(-c3cc(CO)cc(C)n3)cc2)ncc1C(F)(F)F)C(N)=O [Compound 161]	193 nM	
C[C@@H](O)[C@@H](CO)Nc1nc(NCc2ccc(-c3cc(CO)cc(CO)n3)cc2)ncc1C(F)(F)F [Compound 170]	48 nM	
C[C@@H](Oc1nc(NCc2ccc(-c3ccccn3)cc2)ncc1C(F)(F)F)C(C)(C)O [Compound 167]	49 nM	
CC[C@@H](Nc1nc(NCc2ccc(-c3ccccn3)cc2)ncc1C(F)(F)F)[C@@H](C)O [Compound 195]	25 nM	
C[C@@H](Nc1ncc(C(F)(F)F)c(OC2COC2)n1)c1ccc(-c2cc(CO)cc(CO)n2)cc1 [Compound 181]	63 nM	
O[C@H]1COC[C@H]1Oc1nc(NCc2ccc(-c3ccccn3)cc2)ncc1C(F)(F)F [Compound 151]	197 nM	
C[C@@H](O)[C@@H](Nc1nc(NCc2ccc(-c3ccccn3)cc2)ncc1C(F)(F)F)C(N)=O [Compound 213]		IC50 (Homo sapiens, HGC-27, 24 h): 123 nM
O[C@@H]1CCC[C@H]1Nc1nc(NCc2ccc(-c3ccccn3)cc2)ncc1C(F)(F)F [Compound 70]	160 nM	
C[C@@H](O)[C@@H](C)Oc1nc(NCc2ccc(-c3ccccn3)cc2)ncc1C(F)(F)F [Compound 131]	100 nM	
FC(F)(F)c1cnc(NCc2ccc(-c3cnccn3)cc2)nc1OC1COC1 [Compound 21]		IC50 (Homo sapiens, HGC-27, 24 h): 155 nM
C[C@@H](O)[C@H](Nc1nc(NCc2ccc(-c3ccccn3)cc2)ncc1C(F)(F)F)C(N)=O [Compound 207]		IC50 (Homo sapiens, HGC-27, 24 h): 103 nM
Cc1cc(CO)cc(-c2ccc(CNc3ncc(C(F)(F)F)c(N[C@H](CO)[C@@H](C)O)n3)cc2)n1 [Compound 160]	48 nM	
C[C@@H](O)[C@@H](C)Oc1nc(NCc2ccc(-c3cc(CO)cc(CO)n3)cc2)ncc1C(F)(F)F [Compound 168]	60 nM	
CC(C)[C@@H](Nc1nc(NCc2ccc(-c3ccccn3)cc2)ncc1C(F)(F)F)C(N)=O [Compound 210]	34 nM	
CC[C@H](CN)Nc1nc(NCc2ccc(-c3ccccn3)cc2)ncc1C(F)(F)F [Compound 214]	292 nM	
NC(=O)[C@@H](CO)Nc1nc(NCc2ccc(-c3ccccn3)cc2)ncc1C(F)(F)F [Compound 127]	446 nM	
CC[C@H](O)[C@@H](C)Nc1nc(NCc2ccc(-c3ccccn3)cc2)ncc1C(F)(F)F [Compound 199]	205 nM	
CN1CCC(Oc2nc(NCc3ccc(-c4ccccn4)cc3)ncc2C(F)(F)F)CC1 [Compound 35]	379 nM	

SMILES	IC50 [1]	further results
O[C@H]1CCCC[C@H]1Nc1nc(NCc2ccc(-c3ccccn3)cc2)ncc1C(F)(F)F [Compound 156]	169 nM	
NC(=O)[C@H](Nc1nc(NCc2ccc(-c3ccccn3)cc2)ncc1C(F)(F)F)C1CCC1 [Compound 211]	110 nM	
C[C@@H](Nc1nc(NCc2ccc(-c3ccccn3)cc2)ncc1C(F)(F)F)C(N)=O [Compound 188]	258 nM	
CCc1ccnc(-c2ccc(CNc3ncc(C(F)(F)F)c(OC4COC4)n3)cc2)c1 [Compound 135]	427 nM	
C[C@@H](O)[C@@H](C)Oc1nc(NCc2ccc(-c3cc(CO)cc(CO)n3)cn2)ncc1C(F)(F)F [Compound 182]	68 nM	
COc1ccnc(-c2ccc(CNc3ncc(C(F)(F)F)c(OC4COC4)n3)cc2)c1 [Compound 114]	251 nM	
OCc1cc(CO)nc(-c2ccc(CNc3ncc(C(F)(F)F)c(OC4COC4)n3)cc2)c1 [Compound 125]	191 nM	
C[C@@H](O)[C@@H](CN1CCCC1)Nc1nc(NCc2ccc(-c3ccccn3)cc2)ncc1C(F)(F)F [Compound 202]	367 nM	
O[C@H]1CC[C@H]1Nc1nc(NCc2ccc(-c3ccccn3)cc2)ncc1C(F)(F)F [Compound 91]	486 nM	
C[C@@H](Nc1nc(NCc2ccc(-c3ccccn3)cc2)ncc1C(F)(F)F)C(=O)N(C)C [Compound 192]	25 nM	
O[C@H]1CNCC1Oc1nc(NCc2ccc(-c3ccccn3)cc2)ncc1C(F)(F)F (some centres unmarked) [Compound 164]	386 nM	
CC[C@@H](Nc1nc(NCc2ccc(-c3cc(CO)cc(CO)n3)cn2)ncc1C(F)(F)F)C(N)=O [Compound 176]	171 nM	
Cc1ccnc(-c2ccc(CNc3ncc(C(F)(F)F)c(OC4COC4)n3)cc2)c1 [Compound 40]	341 nM	
OCc1ccnc(-c2ccc(CNc3ncc(C(F)(F)F)c(OC4COC4)n3)cc2)c1 [Compound 43]	266 nM	
Cc1cc(CO)cc(-c2ccc(CNc3ncc(C(F)(F)F)c(OC4COC4)n3)cc2)n1 [Compound 64]	251 nM	
NC(=O)[C@H](Nc1nc(NCc2ccc(-c3ccccn3)cc2)ncc1C(F)(F)F)C1CC1 [Compound 206]	65 nM	
OC[C@H](Nc1nc(NCc2ccc(-c3ccccn3)cc2)ncc1C(F)(F)F)C1CC1 [Compound 159]	45 nM	
CC[C@@H](Nc1nc(NCc2ccc(-c3ccccn3)cc2)ncc1C(F)(F)F)C(N)=O [Compound 134]	370 nM	
N#Cc1cc(CO)nc(-c2ccc(CNc3ncc(C(F)(F)F)c(OC4COC4)n3)cc2)c1 [Compound 179]	108 nM	
C[C@@H](O)[C@@H](CO)Nc1nc(NCc2ccc(-c3cccc(CO)n3)cc2)ncc1C(F)(F)F [Compound 171]	25 nM	
